Measurements taken from patent US8017629B2, “Compounds and uses thereof in modulating amyloid β” (Neurogenetic Pharmaceuticals, Inc., priority 2003, dated 2011).

system: Aβ42 levels in the extracellular medium; assay: FRET (HTRF) assay, Aβ42 level of the extracellular medium of SH-SY5Y-APP cells; assay type: cell-based; conditions: Homo sapiens, concentration at which reduction of Aβ42 level was half of the maximum reduction, read-out: Ab42 Potency

EC50	Compound
< 200 nM	CCN(CC)c1cc(Nc2nc(-c3cnc(-n4cnc(C)c4)nc3)cs2)c(C)cc1C [Compound 343]
1100 to 5000 nM	Cc1ccc(Nc2nc(-c3ccc(Br)cc3)co2)c(C)c1 [Compound 344]
5100 to 10000 nM	Cc1ccc(Nc2nc(-c3ccc(-n4ccnc4)cc3)co2)c(C)c1 [Compound 345]
< 200 nM	CCN(CC)c1ccc(C)c(Nc2nc(-c3ccc(-n4cc(C)nn4)cc3)cs2)c1 [Compound 346]
< 200 nM	CCN(C)c1ccc(C)c(Nc2nc(-c3ccc(-n4cnc(C)c4)cc3)cs2)c1 [Compound 347]
< 200 nM	CCCN(C)c1ccc(C)c(Nc2nc(-c3ccc(-n4cnc(C)c4)cc3)cs2)c1 [Compound 348]
< 200 nM	Cc1cn(-c2ncc(-c3csc(Nc4cc(C)c(C)cc4C)n3)cn2)cn1 [Compound 349]
< 200 nM	CCN(CC1CC1)c1cc(Nc2nc(-c3ccc(-n4cnc(C)c4)cc3)cs2)c(C)cc1C [Compound 350]
< 200 nM	COc1ccc(C)c(Nc2nc(-c3ccc(-n4ccnc4)cc3)cs2)c1 [Compound 351]
< 200 nM	COc1ccc(C)c(Nc2nc(-c3ccc(-n4cnc(C)c4)cc3)cs2)c1 [Compound 352]

molecular target: BACE Enzyme (Homo sapiens, UniProt P56817); assay: BACE Enzyme Potency (Table 12); assay type: biochemical; conditions: not given
Sequence (P56817 46-501, species assumed): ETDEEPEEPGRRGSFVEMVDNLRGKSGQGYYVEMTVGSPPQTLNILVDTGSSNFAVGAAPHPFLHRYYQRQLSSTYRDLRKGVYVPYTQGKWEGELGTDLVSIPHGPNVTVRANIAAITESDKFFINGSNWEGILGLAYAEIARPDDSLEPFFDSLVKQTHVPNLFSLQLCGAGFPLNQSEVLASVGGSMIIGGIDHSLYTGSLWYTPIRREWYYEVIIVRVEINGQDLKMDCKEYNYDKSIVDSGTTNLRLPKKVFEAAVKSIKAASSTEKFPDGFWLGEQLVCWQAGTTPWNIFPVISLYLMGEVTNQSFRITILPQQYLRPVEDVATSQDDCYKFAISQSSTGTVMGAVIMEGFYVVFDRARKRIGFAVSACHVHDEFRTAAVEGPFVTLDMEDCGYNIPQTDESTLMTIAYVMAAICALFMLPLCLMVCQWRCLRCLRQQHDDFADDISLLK

Compound	IC50
COc1ccc(-c2csc(Nc3ccc(N(C)C)cc3)n2)c(OC)c1 [Compound 355]	1100 to 5000 nM

same assay, conditions: Table 12; class symbols; read-out: BACE Enzyme Potency

Compound	IC50
COc1cccc(CNc2nc(-c3ccc(N4CCN(C)CC4)cc3)cs2)c1 [Compound 365]	5100 to 10000 nM
CN1CCN(c2ccc(-c3csc(Nc4ccc5c(cnn5C)c4)n3)cc2)CC1 [Compound 367]	1100 to 5000 nM
CN1CCN(c2ccc(-c3csc(Nc4ccc5[nH]ncc5c4)n3)cc2)CC1 [Compound 368]	1100 to 5000 nM
CCN1CCN(c2ccc(-c3csc(Nc4ccc5c(c4)OCO5)n3)cc2)CC1 [Compound 375]	1100 to 5000 nM
CSc1cccc(Nc2nc(-c3ccc(N4CCCC4)cc3)cs2)c1 [Compound 379]	200 to 1000 nM
CCN(CC)c1ccc(Nc2nc(-c3ccc(-n4cnc(C)c4)cc3)cs2)c(C)c1 [Compound 380]	1100 to 5000 nM
CCN(c1ccc(N2CCOCC2)cc1)c1nc(-c2ccc(-n3ccnc3)cc2)cs1 [Compound 381]	5100 to 10000 nM
CCOC(=O)c1ccc(Nc2nc(-c3ccc(N4CCN(C)CC4)cc3)cs2)cc1 [Compound 382]	200 to 1000 nM

Results, then the compound that gave them:

IC50	Compound
200 to 1000 nM	COc1ccc(-c2csc(Nc3ccc(OC)c(OC)c3)n2)c(OC)c1 [Compound 353]
200 to 1000 nM	COc1cc(Nc2nc(-c3ccc(F)cc3)cs2)cc(OC)c1OC [Compound 354]
200 to 1000 nM	COc1cc(Nc2nc(-c3ccc(N4CCN(C)CC4)cc3)cs2)cc(OC)c1OC [Compound 356]
200 to 1000 nM	CN1CCN(c2ccc(-c3csc(Nc4ccc5c(c4)OCO5)n3)cc2)CC1 [Compound 357]
200 to 1000 nM	CN1CCN(c2ccc(-c3csc(Nc4ccc(N(C)C)cc4)n3)cc2)CC1 [Compound 358]
200 to 1000 nM	CN1CCN(c2ccc(-c3csc(Nc4ccc5ccccc5c4)n3)cc2)CC1 [Compound 359]
< 200 nM	CN1CCN(c2ccc(-c3csc(Nc4cccc5cccnc45)n3)cc2)CC1 [Compound 360]
200 to 1000 nM	Brc1ccc(Nc2nc(-c3ccc(N4CCCC4)cc3)cs2)cc1 [Compound 361]
200 to 1000 nM	COc1ccc(-c2csc(Nc3ccc(Br)cc3)n2)c(OC)c1 [Compound 362]
200 to 1000 nM	CCc1ccc(Nc2nc(-c3ccc(N4CCCC4)cc3)cs2)cc1 [Compound 363]
< 200 nM	CN1CCN(c2ccc(-c3csc(Nc4ccc5c(c4)OCCO5)n3)cc2)CC1 [Compound 364]
< 200 nM	CN1CCN(c2ccc(-c3csc(Nc4ccc(Cl)c(Cl)c4)n3)cc2)CC1 [Compound 366]
< 200 nM	CN1CCN(c2ccc(-c3csc(Nc4ccc(Oc5ccccc5)cc4)n3)cc2)CC1 [Compound 369]
200 to 1000 nM	c1cn(-c2ccc(-c3csc(Nc4ccc5[nH]ccc5c4)n3)cc2)cn1 [Compound 370]
200 to 1000 nM	CSc1cccc(Nc2nc(-c3ccc(-n4ccnc4)cc3)cs2)c1 [Compound 371]
200 to 1000 nM	CSc1cccc(Nc2nc(-c3ccc(N4CCN(C)CC4)cc3)cs2)c1 [Compound 372]
200 to 1000 nM	CC(C)N(c1ccccc1)c1ccc(Nc2nc(-c3ccc(-n4ccnc4)cc3)cs2)cc1 [Compound 373]
200 to 1000 nM	COc1ccc(-c2csc(Nc3ccc4[nH]cnc4c3)n2)c(OC)c1 [Compound 374]
200 to 1000 nM	CN1CCN(c2ccc(-c3csc(Nc4cccc(Cl)c4)n3)cc2)CC1 [Compound 376]
200 to 1000 nM	c1cc(Nc2nc(-c3ccc4c(c3)OCO4)cs2)c2cn[nH]c2c1 [Compound 377]
200 to 1000 nM	CN1CCN(c2ccc(-c3csc(Nc4ccc(Cl)cc4)n3)cc2)CC1 [Compound 378]
